This is an account of results in patent US7875647B2, “Heteroaryl-pyrazole derivatives as cannabinoid CB1 receptor antagonists” (Green Cross Corporation, priority 2006, dated 2011).

By IC50 is commonly meant the concentration at which inhibition is half-maximal.

T1 sequence (P20272 whole entry): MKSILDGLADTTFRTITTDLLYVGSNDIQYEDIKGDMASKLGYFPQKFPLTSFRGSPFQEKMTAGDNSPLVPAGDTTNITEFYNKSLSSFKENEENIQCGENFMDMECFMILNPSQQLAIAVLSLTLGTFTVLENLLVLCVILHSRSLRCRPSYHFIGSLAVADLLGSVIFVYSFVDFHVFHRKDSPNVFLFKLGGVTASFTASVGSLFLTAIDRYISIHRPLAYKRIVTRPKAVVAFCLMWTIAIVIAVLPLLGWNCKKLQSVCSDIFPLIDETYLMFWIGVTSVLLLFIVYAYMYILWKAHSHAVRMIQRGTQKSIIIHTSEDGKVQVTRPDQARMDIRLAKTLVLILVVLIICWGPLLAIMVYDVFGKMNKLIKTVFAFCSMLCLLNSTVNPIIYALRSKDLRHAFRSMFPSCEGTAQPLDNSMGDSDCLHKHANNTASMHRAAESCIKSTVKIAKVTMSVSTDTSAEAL

This experiment concerns the target T1, Cannabinoid-1 receptor (CB1R) (Rattus norvegicus, UniProt P20272).
T1 construct: The tissue obtained from the brain of SD rats was homogenized; from tissue; host or cells: brain of SD rats (membrane pellet of the homogenate)
Briefly: Cannabinoid-1 receptor (CB1R) binding affinity assay ([3H]CP-55940, rat CB-1 receptor binding protocol). The settings on record: brain tissue of SD rats, [3H]CP-55940, 30° C. 60 min; read-out: IC50.
On to `CC(C)(C)c1nnc(-c2nn(-c3ccc(Cl)cc3Cl)c(-c3ccc(Cl)cc3)c2Br)o1` [Example 338, 2-(4-bromo-5-(4-chlorophenyl)-1-(2,4-dichlorophenyl)-1H-pyrazol-3-yl)-5-tert-butyl-1,3,4-oxadiazole], for which the half-inhibitory concentration (IC50) came out at 30.4 nM.

Consider `CCC(C)c1nnc(-c2nn(-c3ccc(Cl)cc3Cl)c(-c3ccc(Cl)cc3)c2Br)o1` (stereo not drawn) [Example 339, 2-(4-bromo-5-(4-chlorophenyl)-1-(2,4-dichlorophenyl)-1H-pyrazol-3-yl)-5-sec-butyl-1,3,4-oxadiazole], for which the IC50 worked out at 21.3 nM.

Turning to `Clc1ccc(-c2c(Br)c(-c3nnc(C4CCC4)o3)nn2-c2ccc(Cl)cc2Cl)cc1` [Example 340, 2-(4-bromo-5-(4-chlorophenyl)-1-(2,4-dichlorophenyl)-1H-pyrazol-3-yl)-5-cyclobutyl-1,3,4-oxadiazole], the IC50 came to 35.5 nM.

For the molecule `Clc1ccc(-c2c(Br)c(-c3nnc(C4CCCCC4)o3)nn2-c2ccc(Cl)cc2Cl)cc1` [Example 341, 2-(4-bromo-5-(4-chlorophenyl)-1-(2,4-dichlorophenyl)-1H-pyrazol-3-yl)-5-cyclohexyl-1,3,4-oxadiazole], the IC50 was determined as 81.4 nM.

With `CCC(C)(C)c1nnc(-c2nn(-c3ccc(Cl)cc3Cl)c(-c3ccc(Cl)cc3)c2Br)o1` [Example 342, 2-(4-bromo-5-(4-chlorophenyl)-1-(2,4-dichlorophenyl)-1H-pyrazol-3-yl)-5-tert-pentyl-1,3,4-oxadiazole], the half-inhibitory concentration (IC50) came out at 27.8 nM.

For `CC(C)(c1ccc(Cl)cc1)c1nnc(-c2nn(-c3ccc(Cl)cc3Cl)c(-c3ccc(Cl)cc3)c2Br)o1` [Example 343, 2-(4-bromo-5-(4-chlorophenyl)-1-(2,4-dichlorophenyl)-1H-pyrazol-3-yl)-5-(2-(4-chlorophenyl)propan-2-yl)-1,3,4-oxadiazole], the IC50 came out at 22.2 nM.

In the case of `Clc1ccc(-c2c(Br)c(-c3nnc(C4(c5ccc(Cl)cc5)CC4)o3)nn2-c2ccc(Cl)cc2Cl)cc1` [Example 344, 2-(4-bromo-5-(4-chlorophenyl)-1-(2,4-dichlorophenyl)-1H-pyrazol-3-yl)-5-(1-(4-chlorophenyl)cyclopropyl)-1,3,4-oxadiazole], the IC50 was found to be 11.6 nM.

As for `Cc1c(-c2nnc(C3CCC3)s2)nn(-c2ccc(Cl)cc2Cl)c1-c1ccc(Cl)cc1` [Example 345, 2-(5-(4-chlorophenyl)-1-(2,4-dichlorophenyl)-4-methyl-1H-pyrazol-3-yl)-5-cyclobutyl-1,3,4-thiadiazole], the IC50 stood at 4.08 nM.

On to `Cc1c(-c2nnc(C3CCCC3)s2)nn(-c2ccc(Cl)cc2Cl)c1-c1ccc(Cl)cc1` [Example 346, 2-(5-(4-chlorophenyl)-1-(2,4-dichlorophenyl)-4-methyl-1H-pyrazol-3-yl)-5-cyclopentyl-1,3,4-thiadiazole], for which the half-maximal inhibitory concentration (IC50) was determined as 8.8 nM.

Consider `Cc1c(-c2nnc(-c3cccs3)s2)nn(-c2ccc(Cl)cc2Cl)c1-c1ccc(Cl)cc1` [Example 351, 2-(5-(4-chlorophenyl)-1-(2,4-dichlorophenyl)-4-methyl-1H-pyrazol-3-yl)-5-(thiophen-2-yl)-1,3,4-thiadiazole], for which the half-maximal inhibitory concentration (IC50) is 63.3 nM.

For `Cc1c(-c2nnc(Cc3ccccn3)s2)nn(-c2ccc(Cl)cc2Cl)c1-c1ccc(Cl)cc1` [Example 352, 2-(5-(4-chlorophenyl)-1-(2,4-dichlorophenyl)-4-methyl-1H-pyrazol-3-yl)-5-(pyridin-2-ylmethyl)-1,3,4-thiadiazole], the half-maximal inhibitory concentration (IC50) came out at 41.2 nM.

Turning to `Cc1c(-c2nnc(C(C)C)s2)nn(-c2ccc(Cl)cc2Cl)c1-c1ccc(Cl)cc1` [Example 353, 2-(5-(4-chlorophenyl)-1-(2,4-dichlorophenyl)-4-methyl-1H-pyrazol-3-yl)-5-isopropyl-1,3,4-thiadiazole], the half-inhibitory concentration (IC50) is 21.5 nM.

Take `Cc1c(-c2nnc(Cc3ccccc3)s2)nn(-c2ccc(Cl)cc2Cl)c1-c1ccc(Cl)cc1` [Example 354, 2-benzyl-5-(5-(4-chlorophenyl)-1-(2,4-dichlorophenyl)-4-methyl-1H-pyrazol-3-yl)-1,3,4-thiadiazole]: the half-maximal inhibitory concentration (IC50) worked out at 26 nM.

On to `CCCCc1nnc(-c2nn(-c3ccc(Cl)cc3Cl)c(-c3ccc(Cl)cc3)c2C)s1` [Example 355, 2-Butyl-5-(5-(4-chlorophenyl)-1-(2,4-dichlorophenyl)-4-methyl-1H-pyrazol-3-yl)-1,3,4-thiadiazole], for which the IC50 was 46 nM.

`Cc1c(-c2nnc(-c3ccccc3)s2)nn(-c2ccc(Cl)cc2Cl)c1-c1ccc(Cl)cc1` [Example 356, 2-(5-(4-Chlorophenyl)-1-(2,4-dichlorophenyl)-4-methyl-1H-pyrazol-3-yl)-5-phenyl-1,3,4-thiadiazole]: the IC50 was found to be 231 nM.

Turning to `Cc1c(-c2nnc(CC3CCCC3)s2)nn(-c2ccc(Cl)cc2Cl)c1-c1ccc(Cl)cc1` [Example 357, 2-(5-(4-Chlorophenyl)-1-(2,4-dichlorophenyl)-4-methyl-1H-pyrazol-3-yl)-5-(cyclopentylmethyl)-1,3,4-thiadiazole], the IC50 is 30.9 nM.

With `Cc1c(-c2nnc(C3CCOCC3)s2)nn(-c2ccc(Cl)cc2Cl)c1-c1ccc(Cl)cc1` [Example 358, 2-(5-(4-Chlorophenyl)-1-(2,4-dichlorophenyl)-4-methyl-1H-pyrazol-3-yl)-5-(tetrahydro-2H-pyran-4-yl)-1,3,4-thiadiazole], the IC50 amounted to 54.3 nM.

For the molecule `Cc1c(-c2nnc(C3CCCO3)s2)nn(-c2ccc(Cl)cc2Cl)c1-c1ccc(Cl)cc1` (stereo not drawn) [Example 359, 2-(5-(4-Chlorophenyl)-1-(2,4-dichlorophenyl)-4-methyl-1H-pyrazol-3-yl)-5-(tetrahydrofuran-2-yl)-1,3,4-thiadiazole], the IC50 worked out at 27.6 nM.

In the case of `Cc1nnc(-c2nn(-c3ccc(Cl)cc3Cl)c(-c3ccc(Cl)cc3)c2C)s1` [Example 360, 2-(5-(4-chlorophenyl)-1-(2,4-dichlorophenyl)-4-methyl-1H-pyrazol-3-yl)-5-methyl-1,3,4-thiadiazole], the IC50 came to 97.2 nM.

Consider `CCCCCc1nnc(-c2nn(-c3ccc(Cl)cc3Cl)c(-c3ccc(Cl)cc3)c2C)s1` [Example 361, 2-(5-(4-Chlorophenyl)-1-(2,4-dichlorophenyl)-4-methyl-1H-pyrazol-3-yl)-5-pentyl-1,3,4-thiadiazole], for which the IC50 was found to be 69.2 nM.

On to `Cc1c(-c2nnc(C3CCCCCC3)s2)nn(-c2ccc(Cl)cc2Cl)c1-c1ccc(Cl)cc1` [Example 362, 2-(5-(4-Chlorophenyl)-1-(2,4-dichlorophenyl)-4-methyl-1H-pyrazol-3-yl)-5-cycloheptyl-1,3,4-thiadiazole], for which the concentration for half-maximal inhibition (IC50) worked out at 36.1 nM.

For `Cc1c(-c2nnc(C3CCC3)s2)nn(-c2ccc(Cl)cc2Cl)c1-c1ccc(Br)cc1` [Example 364, 2-(5-(4-Bromophenyl)-1-(2,4-dichlorophenyl)-4-methyl-1H-pyrazol-3-yl)-5-cyclobutyl-1,3,4-thiadiazole], the IC50 worked out at 34.4 nM.

As for `Cc1c(-c2nnc(CC3CCCCC3)s2)nn(-c2ccc(Cl)cc2Cl)c1-c1ccc(Cl)cc1` [Example 365, 2-(5-(4-Chlorophenyl)-1-(2,4-dichlorophenyl)-4-methyl-1H-pyrazol-3-yl)-5-(cyclohexylmethyl)-1,3,4-thiadiazole], the IC50 worked out at 20.4 nM.

Regarding `Cc1c(-c2nnc(C3CCCC3)s2)nn(-c2ccc(Cl)cc2Cl)c1-c1ccc(Br)cc1` [Example 366, 2-(5-(4-Bromophenyl)-1-(2,4-dichlorophenyl)-4-methyl-1H-pyrazol-3-yl)-5-cyclopentyl-1,3,4-thiadiazole], the IC50 is 18.1 nM.
